These results are taken from patent US8791108B2, “Inhibitors of human immunodeficiency virus replication” (priority 2011, dated 2014).

This test relates to recombinant NL-Rluc virus. In words: Inhibition of HIV replication (NL-RLuc luciferase reporter virus, MT-2 cells). The class given is cell-based. Conditions: Human immunodeficiency virus 1, MT2, 120 h.

The structures appear in SMILES notation. Where two headings read alike, the source gives them in different places.

With `Cc1nc2cc(C(=O)NCc3ccc(F)cc3)nn2c(-c2cc(F)c3c(c2C)CCCO3)c1[C@H](OC(C)(C)C)C(=O)O` [Example 1, (2S)-2-(tert-butoxy)-2-(7-(8-fluoro-5-methylchroman-6-yl)-2-((4-fluorobenzyl)carbamoyl)-5-methylpyrazolo[1,5-a]pyrimidin-6-yl)acetic acid], the EC50 is < 0.1 µM (read-out: Activity) and 0.053 µM (read-out: EC50 μM). As for `CNC(=O)c1cc(F)ccc1CNC(=O)c1cc2nc(C)c([C@H](OC(C)(C)C)C(=O)O)c(-c3cc(F)c4c(c3C)CCCO4)n2n1` [Example 30, (2S)-2-(tert-butoxy)-2-(2-((4-fluoro-2-(methylcarbamoyl)benzyl)carbamoyl)-7-(8-fluoro-5-methylchroman-6-yl)-5-methylpyrazolo[1,5-a]pyrimidin-6-yl)acetic acid], the EC50 reads like this: (read-out: Activity) 0.1 to 1 µM; (read-out: EC50 μM) 3.2 µM. Consider `COc1ccc(CNC(=O)c2cc3nc(C)c([C@H](OC(C)(C)C)C(=O)O)c(-c4cc(F)c5c(c4C)CCCO5)n3n2)cc1OC` [Example 41, (2S)-2-(tert-butoxy)-2-(2-((3,4-dimethoxybenzyl)carbamoyl)-7-(8-fluoro-5-methylchroman-6-yl)-5-methylpyrazolo[1,5-a]pyrimidin-6-yl)acetic acid], for which the EC50 (read-out: Activity) lay within 0.1 to 1 µM. Consider `CCCCOc1cc(F)ccc1CNC(=O)c1cc2nc(C)c([C@H](OC(C)(C)C)C(=O)O)c(-c3ccc4c(c3Cl)NCCO4)n2n1` [Example 143, (2S)-2-(tert-Butoxy)-2-(2-((2-butoxy-4-fluorobenzyl)carbamoyl)-7-(5-chloro-3,4-dihydro-2H-benzo[b][1,4]oxazin-6-yl)-5-methylpyrazolo[1,5-a]pyrimidin-6-yl)acetic acid], for which the EC50 reads like this: (read-out: Activity) < 0.1 µM; (read-out: EC50 μM) 0.028 µM.

`Cc1nc2cc(C(=O)NCCN3CCOCC3)nn2c(-c2cc(F)c3c(c2C)CCCO3)c1[C@H](OC(C)(C)C)C(=O)O` [Example 88, (2S)-2-(tert-butoxy)-2-(7-(8-fluoro-5-methylchroman-6-yl)-5-methyl-2-((2-morpholinoethyl)carbamoyl)pyrazolo[1,5-a]pyrimidin-6-yl)acetic acid]: the EC50 (read-out: Activity) is > 1 µM. Still for that read-out and setting: to `Cc1nc2cc(C(=O)N(C)Cc3ccc(Cl)c(Cl)c3)nn2c(-c2cc(F)c3c(c2C)CCCO3)c1[C@H](OC(C)(C)C)C(=O)O` [Example 115, (2S)-2-(tert-butoxy)-2-(2-((3,4-dichlorobenzyl)(methyl)carbamoyl)-7-(8-fluoro-5-methylchroman-6-yl)-5-methylpyrazolo[1,5-a]pyrimidin-6-yl)acetic acid] belongs < 0.1 µM; to `Cc1nc2cc(C(=O)NCc3ccc(F)cc3-n3ncnc3C)nn2c(-c2cc(F)c3c(c2C)CCCO3)c1C(OC(C)(C)C)C(=O)O` (stereo in doubt) [Example 9, (2S)-2-(tert-butoxy)-2-(2-((4-fluoro-2-(5-methyl-1H-1,2,4-triazol-1-yl)benzyl)carbamoyl)-7-(8-fluoro-5-methylchroman-6-yl)-5-methylpyrazolo[1,5-a]pyrimidin-6-yl)acetic acid], 0.1 to 1 µM; to `Cc1nc2cc(C(=O)NCCCC3CCOC3)nn2c(-c2cc(F)c3c(c2C)CCCO3)c1[C@H](OC(C)(C)C)C(=O)O` (stereo partly drawn) [Example 132, (2S)-2-(tert-butoxy)-2-(7-(8-fluoro-5-methylchroman-6-yl)-5-methyl-2-((3-(tetrahydrofuran-3-yl)propyl)carbamoyl)pyrazolo[1,5-a]pyrimidin-6-yl)acetic acid], 0.1 to 1 µM. With `Cc1nc2cc(C(=O)NCCCN3CCOCC3)nn2c(-c2cc(F)c3c(c2C)CCCO3)c1[C@H](OC(C)(C)C)C(=O)O` [Example 107], the EC50 (read-out: Activity) was > 1 µM. With `Cc1nc2cc(C(=O)NCc3ccc(Cl)cc3)nn2c(-c2cc(F)c3c(c2C)CCCO3)c1[C@H](OC(C)(C)C)C(=O)O` [Example 46, (2S)-2-(tert-butoxy)-2-(2((4-chlorobenzyl)carbamoyl)-7-(8-fluoro-5-methylchroman-6-yl)-5-methylpyrazolo[1,5-a]pyrimidin-6-yl)acetic acid], the EC50 (read-out: Activity) is < 0.1 µM.
